Here are results for 5 molecules from US20070185055A1, “Method for treating cachexia with retinoid ligands” (priority 2006, published 2007).

One assay has as its system AIDS and cancer patients. The conditions noted are these: cited from earlier work.
In assay [1] the test system is nude mice bearing H292 xenografts (non-small cell lung cancer cells H292). The assay is described as follows: Cachexia in nude mice bearing H292 xenografts. In kind it is in vivo. The conditions noted are these: for body weight of the animals: s.c. H292 xenograft. An excerpt:
FIGS. 1-5 comprise charts or graphs disclosing the results of tests obtained with experimental animals that have been inoculated with a xenograft of non-small cell lung cancer cells H292 or with small cell lung cancer cells H446, and which were then orally administered the RXR agonist Compound 1 referred to above. […]
Specifically, in the experiment shown in FIG. 1 nude mice were subcutaneously transplanted with non-small cell lung cancer cells H292. A group of the animals was given a daily oral dose of 10 mg per kilogram body weight of Compound 1 in a suitable pharmaceutically acceptable vehicle. A group of the control animals was given the vehicle only.
In the experiment shown in FIG. 4 the right gastrocnemius muscle of the control animals and of the animals treated with Compound 1 in a daily dose of 10 mg/kg, as described in connection with FIG. 1, was weighed after the animals had been sacrificed.
In the experiment shown in FIG. 5, the food intake of nude mice with and without H292 xenografts was evaluated. Mice with H292 xenografts had reduced appetite compared with normal control. […] Therefore, adminstration of Compound 1 reverses poor appetite in cachectic animals. […]

Assay [2] has as its system SCID mice transplanted with small cell lung cancer cells H446. Briefly: Cachexia in SCID mice bearing metastatic H446 tumors. In kind it is in vivo. The conditions noted are these: daily oral dose 3 mg/kg or 10 mg/kg, versus vehicle only (FIG. 3). On the procedure: FIGS. 1-5 comprise charts or graphs disclosing the results of tests obtained with experimental animals that have been inoculated with a xenograft of non-small cell lung cancer cells H292 or with small cell lung cancer cells H446, and which were then orally administered the RXR agonist Compound 1 referred to above.
In the experiment shown in FIG. 3, SCID mice were subcutaneously transplanted with small cell lung cancer cells H446. A first group of the animals was given a daily oral dose of 3 mg per kilogram body weight of Compound 1 in a suitable pharmaceutically acceptable vehicle, and a second group was given a daily oral dose of 10 mg per kilogram body weight in the same vehicle. A group of the control animals was given the vehicle only.

The mark [3] stands for this setting: AIDS as well as cancer patients, literature.
The mark [4] stands for this setting: patients, J. Clin. Oncol., 20: 567 (2002).

For the molecule `CC(=O)O[C@]1(C(C)=O)CC[C@H]2[C@@H]3C=C(C)C4=CC(=O)CC[C@]4(C)[C@H]3CC[C@@]21C` [Megestrol acetate], in the assay with AIDS and cancer patients (setting [3]), the body weight gain entry is recorded as “at least five pounds” and the “primary body component that increased” value was “fat, but not lean body mass”.
As to `CC(/C=C/[C@@H]1C[C@]1(C)c1ccc2c(c1)C(C)(C)CCC2(C)C)=C\C(=O)O` [Compound 1], the “weight of the right gastrocnemius muscle” value in assay [1] (H292 xenograft mice, 62 days after transplantation, daily dose 10 mg/kg, versus control (FIG. 4)) is given as “prevents muscle wasting”. Also, the average food intake entry in assay [1] (nude mice with H292 xenografts, daily dose 10 mg/kg, compared with normal mice (FIG. 5)) is “equal amount of food intake as normal mice”. Moreover, the percentage of survival entry in assay [1] (nude mice, H292 xenograft, daily oral dose 10 mg/kg, versus vehicle (FIG. 2)) is “significantly better survival rate”. The “body weight of the animals” value was “significantly greater body weights” in assay [1] (nude mice, daily oral dose 10 mg/kg, versus vehicle only (FIG. 1)) and “significantly greater body weights” in assay [2].
As to `CCCCCc1cc(O)c2c(c1)OC(C)(C)[C@@H]1CCC(C)=C[C@@H]21` [Dronabinol], in the assay with AIDS and cancer patients (setting [4]), the appetite entry is “improved appetite”; the “mood and body weight improvement” value is given as “no effect”.
`CCC[C@]1(c2ccc3c(c2)C(C)(C)CCC3(C)C)C[C@H]1/C=C/C(C)=C/C(=O)O` [Compound 2]: the average food intake entry in assay [1] (nude mice bearing H292 xenografts, daily dose 50 mg/kg, versus vehicle (FIG. 7)) was “significantly larger food intake”. For the same molecule, the “body weight of the animals” value in assay [1] (nude mice, daily oral dose 50 mg/kg, versus vehicle only (FIG. 6)) is listed as “significantly greater body weights”.
For the molecule `C[C@]12COC(=O)C[C@@H]1CC[C@@H]1[C@@H]2CC[C@@]2(C)[C@H]1CC[C@]2(C)O` [Oxandrolone], the body weight entry in the assay with AIDS and cancer patients (patients, literature, for Oxandrolone might have represented primary edema) was “moderate increase of body weight”.
